Data: US20240009331A1, “UROKINASE PLASMINOGEN ACTIVATOR RECEPTOR TARGETED RADIOLABELED PEPTIDE CONJUGATES” (CURASIGHT A/S, priority 2020, published 2024)

Biological target: uPAR H47C-N259C
Assay: SPR inhibition of uPAR binding to immobilized uPA (uPAR H47C-N259C)
Design: species or system human
Details: inhibition of uPAR binding to immobilized prouPA S356A
Procedure: Covalent immobilization of purified human prouPA^S356A was accomplished by injecting 12.5 μg/ml protein dissolved in 10 mM sodium acetate (pH 5.0) over a CM5 chip that had been pre-activated with NHS/EDC (N-ethyl-N′[3-[…])propyl]-carbodiimide), aiming at a surface density of >5000 resonance units (RU) corresponding to 100 fmols/mm^2. After coupling the sensor-chip was deactivated with 1 M ethanolamine. Binding of purified human uPAR as analyte was measured from 4 nM to 0.25 nM at using 10 mM HEPES, 150 mM NaCl, 3 mM EDTA (pH 7.4) containing (v/v) surfactant P20 as running buffer at a flow rate of […]. In between cycles the sensor-chip was regenerated by two consecutive 10-μl injections of 0.1 M acetic acid/HCI (pH 2.5) in 0.5 M NaCl. The inhibition of 3-fold dilutions of the compounds in question was measured for 4 nM uPAR with identical running conditions. All experiments were performed on a BiacoreT200 instrument.
For each inhibition peptide inhibition profile of uPAR binding to immobilized uPA there has been run a preceding standard curve and all calculations are based on the that standard curve.

IC50: 4.5 ± 1.5 µM
SMILES: CC(C)C[C@H](NC(=O)[C@H](Cc1ccc(O)cc1)NC(=O)[C@@H](CCCNC(=N)N)NC(=O)[C@@H](CO)NC(=O)[C@H](Cc1ccccc1)NC(=O)[C@H](CC1CCCCC1)NC(=O)[C@@H](N)CC(=O)O)C(=O)N[C@@H](Cc1c[nH]c2ccccc12)C(=O)N[C@@H](CO)C(=O)O [AE105, DChaFsrYLWS-OH]
